Data published in patent publication US20260191849A1, “PHARMACEUTICAL COMPOSITION FOR TREATMENT OF CANCER” (WIGEN BIOMEDICINE TECHNOLOGY (SHANGHAI) CO., LTD., priority 2022, published 2026).
Read-outs that look alike come from different tables or passages of the source. Each block holds one molecule with its values, some of them ahead of it.

Experiments:
HT29 cells [1] = experiment: Combined use of compound 257, AMG650 or Compound A with PLK1 inhibitor on HT29 cell viability, 168 h (Biological Example 19); assay type: cell-based; conditions: for IC50: HT29 cells
Experimental: HT29 cells were seeded on a 384-well plate at 3000 cells/well.

[2] = system: HT29 subcutaneous xenograft tumors; experiment: In vivo pharmacodynamic study, HT29 subcutaneous xenograft tumor model of mice (Biological Example 3); parameters: species or system BALB/c nude mice; conditions: 80 mg/kg intragastric once daily, day 28
Experimental: BALB/c nude mice were each inoculated subcutaneously with 5×10^6 HT29 cells on the left dorsal side. After the tumors grew to 100-150 mm^3, the mice were randomly divided into the following groups for intragastric administration once daily: group 1: vehicle control group; group 2: compound 661 (80 mg/kg); group 3: compound 669 (80 mg/kg); group 4: compound 677 (80 mg/kg); group 5: compound 714 (80 mg/kg); group 6: compound 727 (80 mg/kg); group 7: compound 740 (80 mg/kg); and group 8: AMG65 (80 mg/kg). The tumor volume was measured twice weekly and at the end of administration. […].

HCT116 cells = experiment: Combined use of compound 257, AMG650 or Compound A with PLK1 inhibitor on HCT116 cell viability, 168 h (Biological Example 20); assay type: cell-based
Experimental: HCT116 cells were seeded on a 384-well plate at 3000 cells/well. After overnight adherence culture, DMSO or compound 257, AMG650, or Compound A serially diluted in a 1:5 ratio from 400 nM and a PLK1 inhibitor with a specified concentration were added. The cell viability was assessed 168 h after dosing by measuring the intracellular ATP content. The inhibition percentages of viable cells by the compounds were calculated by comparing with the DMSO group, and the IC50 values were also calculated.

[3] = system: HT29 subcutaneous xenograft tumors; experiment: In vivo pharmacodynamic study of combination therapy, HT29 subcutaneous xenograft tumor model of mice (Biological Example 14); parameters: species or system BALB/c nude mice
Source text: BALB/c nude mice were each inoculated subcutaneously with 5×10^6 HT29 cells on the left dorsal side. After the tumors grew to 100-150 mm^3, the mice were randomly divided into the following groups for intragastric administration once daily for 14 consecutive days: group 1: vehicle control group; group 2: AMG650 (50 mpk, PO, QD); group 3: compound 714 (50 mpk, PO, QD); group 4: AMG650 (50 mpk, PO, QD)+Onvasertib (20 mpk, PO, QD); group 5: compound 714 (50 mpk, PO, QD)+Onvasertib (20 mpk, PO, QD); and group 6: Onvasertib (20 mpk, PO, QD). The administration to all the groups was stopped on day 15, and the tumor growth continued to be observed until day 21. The tumor volume was measured twice weekly and at the end of administration. […]

HT29 cells [4] = experiment: Combined use of compound 257 or AMG650 with PLK1 inhibitor (Volasertib) on HT29 cell viability, 168 h (Biological Example 22); assay type: cell-based; conditions: Homo sapiens, HT-29, 168 h, HT29 cells, 168 h, read-out: Volasertib IC50
Experimental: (§1) HT29 cells were seeded on a 384-well plate at 3000 cells/well. After overnight adherence culture, DMSO or compound 257 or AMG650 serially diluted in a 1:5 ratio from 400 nM and a PLK1 inhibitor with a specified concentration were added. The cell viability was assessed 168 h after dosing by measuring the intracellular ATP content. […] Furthermore, interactions between the drugs were also analyzed using the BLISS independence model, and the results are shown in FIG. 15 and FIG. 16.

SK-OV-3 cells = experiment: Combined use of compound 257 or AMG650 with PLK1 inhibitor on SK-OV-3 cell viability, 168 h (Biological Example 21); assay type: cell-based; conditions: Homo sapiens, SK-OV-3, 168 h, SK-OV-3 cells, 168 h, read-out: Volasertib IC50
Experimental: as §1, with “SK—OV-3” for “HT29”, “11” for “15”, “12.” for “16.”

[5] = PO QD 14 days, AMG650/714 50 mpk, Onvasertib 20 mpk, day 15
[6] = KIF18A inhibitor AMG650 0.0001 nM
[7] = KIF18A inhibitor AMG650 0.64 nM
[8] = KIF18A inhibitor Compound 257 0.0001 nM
[9] = KIF18A inhibitor Compound 257 0.64 nM
[10] = KIF18A inhibitor Compound 257 3.2 nM
[11] = KIF18A inhibitor Compound 257 16 nM
[12] = KIF18A inhibitor Compound 257 80 nM
[13] = KIF18A inhibitor Compound 257 400 nM

- IC50 (HT29 cells [1]; KIF18A inhibitor AMG650 0.0001 nM, read-out: PLK1 inhibitor IC50): 50.1 nM
- IC50 (HT29 cells [1]; KIF18A inhibitor AMG650 0.64 nM, read-out: PLK1 inhibitor IC50): 48.9 nM
- IC50 (HT29 cells [1]; KIF18A inhibitor AMG650 3.2 nM, read-out: PLK1 inhibitor IC50): 49.9 nM
- IC50 (HT29 cells [1]; KIF18A inhibitor AMG650 16 nM, read-out: PLK1 inhibitor IC50): 24.9 nM
- IC50 (HT29 cells [1]; KIF18A inhibitor AMG650 80 nM, read-out: PLK1 inhibitor IC50): 7.9 nM
- IC50 (HT29 cells [1]; KIF18A inhibitor AMG650 400 nM, read-out: PLK1 inhibitor IC50): 3.5 nM
- IC50 (HT29 cells [1]; KIF18A inhibitor Compound 257 0.0001 nM, read-out: PLK1 inhibitor IC50): 52.1 nM
- IC50 (HT29 cells [1]; KIF18A inhibitor Compound 257 0.64 nM, read-out: PLK1 inhibitor IC50): 37 nM
- IC50 (HT29 cells [1]; KIF18A inhibitor Compound 257 3.2 nM, read-out: PLK1 inhibitor IC50): 15.5 nM
- IC50 (HT29 cells [1]; KIF18A inhibitor Compound 257 16 nM, read-out: PLK1 inhibitor IC50): 3.8 nM
- IC50 (HT29 cells [1]; KIF18A inhibitor Compound 257 80 nM, read-out: PLK1 inhibitor IC50): 1.6 nM
- IC50 (HT29 cells [1]; KIF18A inhibitor Compound 257 400 nM, read-out: PLK1 inhibitor IC50): 2.2 nM
SMILES: COc1cc(C(=O)N[C@H]2CC[C@H](N3CCN(C)CC3)CC2)ccc1Nc1ncc2c(n1)N(C1CCCC1)CC1(CC1)C(=O)N2C [CYC140 (Plogosertib), Plogosertib]

SMILES: COc1ccc(NC(=O)c2ccc(NS(=O)(=O)CCOC(C)=O)cc2N2CCC3(CC2)CC3)nc1N1CCC(F)(F)CC1 [Compound 661]
- TGI [2]: 61%

SMILES: COc1ccc(C(=O)Nc2ccc(NS(=O)(=O)CCOC(C)=O)cc2N2CCC3(CC2)CC3)nc1N1CCC(F)(F)CC1 [Compound 669]
- TGI [2]: 30%

SMILES: COc1ccc(NC(=O)c2ccc(S(=O)(=O)NCCOC(C)=O)cc2N2CCC3(CC2)CC3)nc1N1CCC(F)(F)CC1 [Compound 677]
- TGI [2]: 55%

- IC50 (HCT116 cells; HCT116 cells, CYC140 (Plogosertib) 1.6 nM): > 400 nM
- IC50 (HCT116 cells; HCT116 cells, CYC140 (Plogosertib) 8 nM): > 400 nM
- IC50 (HCT116 cells; HCT116 cells, CYC140 (Plogosertib) 40 nM): > 400 nM
- IC50 (HCT116 cells; HCT116 cells, TAK-960 0 nM): > 400 nM
- IC50 (HCT116 cells; HCT116 cells, TAK-960 1.6 nM): > 400 nM
- IC50 (HCT116 cells; HCT116 cells, TAK-960 8 nM): > 400 nM
- IC50 (HCT116 cells; HCT116 cells, TAK-960 40 nM): > 400 nM
- IC50 (HCT116 cells; Homo sapiens, HCT-116, HCT116 cells, CYC140 (Plogosertib) 0 nM): > 400 nM
- IC50 (HT29 cells [1]; Homo sapiens, HT-29, 168 h, CYC140 (Plogosertib) 0.0001 nM, read-out: IC50): 26.1 nM
- IC50 (HT29 cells [1]; Homo sapiens, HT-29, 168 h, CYC140 (Plogosertib) 1.6 nM, read-out: IC50): 19.6 nM
- IC50 (HT29 cells [1]; Homo sapiens, HT-29, 168 h, CYC140 (Plogosertib) 8 nM, read-out: IC50): 15.5 nM
- IC50 (HT29 cells [1]; Homo sapiens, HT-29, 168 h, CYC140 (Plogosertib) 40 nM, read-out: IC50): 2.2 nM
- IC50 (HT29 cells [1]; Homo sapiens, HT-29, 168 h, TAK-960 0.0001 nM, read-out: IC50): 23.8 nM
- IC50 (HT29 cells [1]; Homo sapiens, HT-29, 168 h, TAK-960 1.6 nM, read-out: IC50): 17.3 nM
- IC50 (HT29 cells [1]; Homo sapiens, HT-29, 168 h, TAK-960 8 nM, read-out: IC50): 4.2 nM
- IC50 (HT29 cells [1]; Homo sapiens, HT-29, 168 h, TAK-960 40 nM, read-out: IC50): 4.1 nM
SMILES: CCS(=O)(=O)Nc1ccc2c(c1)C1(CCC3(CC3)CC1)CN2C(=O)c1cccc(S(=O)(=O)NC(C)(C)C)c1 [Compound A]
- synergistic effect on HCT116 cell viability, combined use with the PLK1 inhibitor (HCT116 cells; CYC140 or TAK-960, in words): no significant synergistic effect
- anti-proliferative activity against HCT116 cells, monotherapy (HCT116 cells; in words): did not exhibit anti-proliferative activity
- inhibitory effect on HT-29 cells, combined use with the PLK1 inhibitor compared with monotherapy (HT29 cells [1]; CYC140 or TAK-960, in words): stronger inhibitory effect

SMILES: CN1CCN(c2ccc(OC(F)(F)F)c(Nc3ncc4c(n3)-c3c(c(C(N)=O)nn3CCO)CC4)c2)CC1 [Onvasertib, Onvansertib]
- Tumor volume on day 1 of administration ([3]; PO QD 14 days, AMG650/714 50 mpk, Onvasertib 20 mpk, day 1 (baseline)): 134 mm^3
- TGI on day 15 [3, 5]: 80%
- Tumor volume on day 15 of administration [3, 5]: 249 mm^3
- therapeutic efficacy of monotherapy in HT29-bearing mice ([3]; monotherapy, in words): relatively weak therapeutic efficacy

- IC50 (HT29 cells [4]; [6]): 22.8 nM
- IC50 (HT29 cells [4]; [7]): 37.8 nM
- IC50 (HT29 cells [4]; KIF18A inhibitor AMG650 3.2 nM): 34.9 nM
- IC50 (HT29 cells [4]; KIF18A inhibitor AMG650 16 nM): 19.5 nM
- IC50 (HT29 cells [4]; KIF18A inhibitor AMG650 80 nM): 18.3 nM
- IC50 (HT29 cells [4]; KIF18A inhibitor AMG650 400 nM): 15.5 nM
- IC50 (HT29 cells [4]; [8]): 17.2 nM
- IC50 (HT29 cells [4]; [9]): 15.6 nM
- IC50 (HT29 cells [4]; [10]): 10.2 nM
- IC50 (HT29 cells [4]; [11]): 1.2 nM
- IC50 (HT29 cells [4]; [12]): 1.4 nM
- IC50 (HT29 cells [4]; [13]): 0.7 nM
- IC50 (SK-OV-3 cells; [6]): 82.1 nM
- IC50 (SK-OV-3 cells; [7]): 70.5 nM
- IC50 (SK-OV-3 cells; KIF18A inhibitor AMG650 3.2 nM): 60.5 nM
- IC50 (SK-OV-3 cells; KIF18A inhibitor AMG650 16 nM): 38.2 nM
- IC50 (SK-OV-3 cells; KIF18A inhibitor AMG650 80 nM): 9.9 nM
- IC50 (SK-OV-3 cells; KIF18A inhibitor AMG650 400 nM): 8.1 nM
- IC50 (SK-OV-3 cells; [8]): 77.9 nM
- IC50 (SK-OV-3 cells; [9]): 61.6 nM
- IC50 (SK-OV-3 cells; [10]): 35.8 nM
- IC50 (SK-OV-3 cells; [11]): 10.1 nM
- IC50 (SK-OV-3 cells; [12]): 5.7 nM
- IC50 (SK-OV-3 cells; [13]): 5.3 nM
SMILES: CC[C@@H]1C(=O)N(C)c2cnc(Nc3ccc(C(=O)N[C@H]4CC[C@H](N5CCN(CC6CC6)CC5)CC4)cc3OC)nc2N1C(C)C [Volasertib]
